Measurements: paper PMC7887336, “Altered functional properties of the codling moth Orco mutagenized in the intracellular loop-3” (Scientific Reports, 2021)
Values joined by “and” are separate entries in the source; they are usually repeats but may differ in a detail not shown here. Equal entries are not always repeated.

Tests used:
CpomOrco^Q417H = CpomOrco^Q417H (Cydia pomonella, UniProt H9A5M2, Q417H); assay: Calcium imaging (Fluo-4) of HEK293A cells transfected with mutagenized CpomOrco^Q417H, VUAA1 stimulation; type: cell-based; conditions: for EC50: EC50, HEK293A; for Hill coefficient / maximum response (Hill fit of calcium response amplitudes): HEK293A
Procedure: (§1) HEK293 cells lines (HEK293A/HEK293T) were grown in HEK cell media [Dulbecco's modified Eagle's medium containing 10% fetal bovine serum (MP Biomedicals, Solon, OH, USA), 2.0 mM L-glutamine, and 100 µg/mL penicillin/streptomycin (Invitrogen)] at 37 °C and 5% CO2. To test transient expression of wild type CpomOrco and CpomOrco^Q417H variant for calcium imaging and patch-clamp recording, 35-mm petri dishes containing semi-confluent HEK293A cells were transiently transfected. Cells were transfected with 0.6 µg of pcDNA40-DEST carrying the coding sequence of the CpomOrco variant (depending on the experiments). To report expression for calcium imaging experiments, 0.6 µg of a separate plasmid DNA [pEBFP2-Nuc, a gift from Robert Campbell (Addgene plasmid # 1489352)] carrying the coding sequence for a blue fluorescent protein (EBFP) was co-transfected. To report expression in patch-clamp recordings, 1.0 µg of a separate plasmid DNA (pXOOM, Clontech, Mountain View, CA, USA) carrying the coding sequence for a green fluorescent protein (GFP) was co-transfected. Expressions of fluorescent reporter genes were under the regulation of the same promoter for Cpom-genes (CMV). For specific experiments, co-transfections were conducted combining an additional 1.2 µg of pcDNA40-DEST/CpomOR3 or pcDNA40-DEST/CpomOR6a, as we previously described. Co-transfections with CpomOR3 were performed for dose–response experiments to pear ester: CpomOR3 was co-expressed with CpomOrco variants by the use of HEK293T (Fig. 3b); given the reported functional co-expression data of the CpomOrco + OR3 heteromers by the use of these specific cells. In brief, transfection DNAs were dissolved in 100 µL sterile DMEM, mixed with 3.0 µL Calfectin (SignaGen, Rockville, MD, USA) following the recommended protocol. Transfections were conducted overnight for up to 18 h, HEK cell media was replaced with 2.0 mL fresh media to incubate cells at 37 °C for up to 6–8 h, at which point part of the cell culture was spread in the middle of a 35-mm plate as individual cells or small clusters and rinsed at the sides with 2.0 mL fresh HEK media. After splitting, cells were allowed to recover for at least 1 day prior to calcium imaging.
(§2) Activation of HEK293 cells transfected with CpomOrco variants was tested using the same procedures we previously described. Petri dishes were incubated for 1 h at room temperature in 1.0 mL HEK Ca^++ Ringer (mM: 140 NaCl, 5.0 KCl, 2.0 CaCl2, 10 HEPES, pH 7.4) containing the fluorescent calcium indicator Fluo-4AM (Invitrogen) at 5–15 µM prepared with 0.2–0.06% Pluronic F-127 (Invitrogen). To monitor intracellular pH, HEK293A cells were loaded with 10.0 µL BCECF dye (Anaspec, Fremont, CA).
(§3) As reported in Cattaneo et al.[14], the buffer was removed after incubation, cells were rinsed with 4.0 mL fresh HEK Ca^++ Ringer and placed on the stage of an inverted microscope (Olympus IX-71, Olympus Corp., Tokyo, Japan) equipped with a cooled CCD camera (ORCA R2, Hamamatsu, Hamamatsu City, Japan). Cells were continuously superfused with Ca^++ Ringer using two gravity fed perfusion contours. The […] contour washing the cells (~ 250 µL/min) was switched rapidly to the stimulus contour using a multi-channel rapid solution changer (RSC-160, Bio-Logic, Claix, France) under the software control of Clampex 9 (Molecular Devices, Sunnyvale, CA, USA).
(§4) Fluorescence imaging was performed using settings optimized for Imaging Workbench 6 software (INDEC BioSystems, Santa Clara, CA, USA)[14]. The non-responsive cells were not included in these analyses. Each cell was assigned a region of interest (ROI) and changes in fluorescence intensity within each ROI were measured and expressed as the fractional change in fluorescence intensity (dF). Stored time series image stacks were analysed off-line using Imaging Workbench 6, Clampfit 10.5 (Molecular Devices) and SigmaPlot 11 (Systat Software Inc., San Jose, CA, USA). Dose–response curves were approximated using Hill equation. […]

CpomOrco [1] = target: T1, CpomOrco (Cydia pomonella, UniProt H9A5M2); assay: Whole-cell voltage-clamp recordings of HEK293A cells transfected with CpomOrco, VUAA1; type: cell-based; conditions: for EC50: EC50 (K1/2)
Procedure: as §1
Electrophysiological experiments were performed according with the same procedures we previously described. Patch pipettes were fabricated from borosilicate capillary glass (BF150-86–10, Sutter Instrument, CA, USA) using a Flaming-Brown micropipette puller (P-87, Sutter Instrument). Only patches with initial cell-attached seal resistance estimated higher than 1.0 GOhms were used in the experiments. Intracellular (pipette) solution for whole-cell experiments was KCl 140 mM, EGTA 1 mM, Hepes 5 mM, MES 5 mM, pH 8.0 or pH 5.5 (depending on the experiment) adjusted with either NaOH or HCl, standard Na^+ 140 mM. bath solution was usually NaCl 140 mM, EGTA 0.1 mM, Hepes 10 mM, pH 7.4 (adjusted with Tris-base or NaOH). VUAA1 doses (0–1000 µM) were added to the extracellular test solutions.
As described in methods of Cattaneo et al.[14], GFP positive HEK293A cells were visualized using either an Axiovert 100 inverted microscope (Carl Zeiss, Inc., München, Germany) equipped with a mercury vapour compressed-arc lamp (HBO100) coupled to widefield fluorescence filter set (1114–459, Carl Zeiss, Inc.) or Olympus IX-71 inverted microscope described above (Olympus Corp.). The Orco channel-mediated currents were investigated using whole-cell patch-clamp recordings. The currents were measured with a 200B patch-clamp amplifier (Molecular Devices) and a digital interface (Digidata 1320A, Molecular Devices), low pass filtered at 5.0 kHz, sampled at 1–2 kHz. Analysis of the data was carried out using pCLAMP 9.2/10.5 software (Molecular Devices) and SigmaPlot 11 (Systat Software Inc). […]

CpomOrco [2] = target: T1, CpomOrco; assay: Calcium imaging (Fluo-4) of HEK293A cells transfected with wild-type CpomOrco, VUAA1 stimulation; type: cell-based; conditions: for Fluo4 + cells, %: of bright field cells; for EC50 / Hill coefficient / maximum response (Hill fit of calcium response amplitudes): HEK293A, CpomOrco
Procedure: as §1, §2, §3, §4

CpomOrco^Q417H+OR6a = assay: VUAA1 responsiveness (Fluo4 +) of HEK293A cells co-transfected with CpomOrco^Q417H and CpomOR6a; type: cell-based, Cydia pomonella; conditions: for Fluo4 + cells, %: of bright field cells
Procedure: HEK293 cells lines (HEK293A/HEK293T) were grown in HEK cell media [Dulbecco's modified Eagle's medium containing 10% fetal bovine serum (MP Biomedicals, Solon, OH, USA), 2.0 mM L-glutamine, and 100 µg/mL penicillin/streptomycin (Invitrogen)] at 37 °C and 5% CO2. To test transient expression of wild type CpomOrco and CpomOrco^Q417H variant for calcium imaging and patch-clamp recording, 35-mm petri dishes containing semi-confluent HEK293A cells were transiently transfected. Cells were transfected with 0.6 µg of pcDNA40-DEST carrying the coding sequence of the CpomOrco variant (depending on the experiments). To report expression for calcium imaging experiments, 0.6 µg of a separate plasmid DNA [pEBFP2-Nuc, a gift from Robert Campbell (Addgene plasmid # 1489352)] carrying the coding sequence for a blue fluorescent protein (EBFP) was co-transfected. To report expression in patch-clamp recordings, 1.0 µg of a separate plasmid DNA (pXOOM, Clontech, Mountain View, CA, USA) carrying the coding sequence for a green fluorescent protein (GFP) was co-transfected. Expressions of fluorescent reporter genes were under the regulation of the same promoter for Cpom-genes (CMV). For specific experiments, co-transfections were conducted combining an additional 1.2 µg of pcDNA40-DEST/CpomOR3 or pcDNA40-DEST/CpomOR6a, as we previously described. […]
as §4, with “The non-responsive cells were not included in these analyses.” left out, “USA).” for “USA). Dose–response curves were approximated using Hill equation.”

[3] = after 30 min incubation at low pHe = 4.7
[4] = control pH conditions (pH 7.4), Hill fit
[5] = intracellular pH = 5.5, extracellular pH 7.4, -50 mV
[6] = intracellular pH = 8.0, extracellular pH 7.4, -50 mV

T1 sequence (H9A5M2 entry or part of it): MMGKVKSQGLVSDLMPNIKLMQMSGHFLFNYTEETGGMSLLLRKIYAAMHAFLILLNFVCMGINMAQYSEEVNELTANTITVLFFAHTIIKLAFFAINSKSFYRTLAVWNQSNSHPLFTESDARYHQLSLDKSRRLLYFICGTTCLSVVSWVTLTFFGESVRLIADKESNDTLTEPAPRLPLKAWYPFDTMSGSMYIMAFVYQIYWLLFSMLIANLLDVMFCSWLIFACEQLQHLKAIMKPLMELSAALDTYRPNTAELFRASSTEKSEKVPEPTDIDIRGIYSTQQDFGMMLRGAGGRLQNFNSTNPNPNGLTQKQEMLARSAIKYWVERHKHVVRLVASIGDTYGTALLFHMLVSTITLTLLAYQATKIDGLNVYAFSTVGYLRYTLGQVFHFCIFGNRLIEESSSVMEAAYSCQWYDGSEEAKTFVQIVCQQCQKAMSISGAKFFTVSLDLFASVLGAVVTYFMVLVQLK
CpomOrco^Q417H, sequence (H9A5M2 entry or part of it Q417H): as the sequence (H9A5M2 entry or part of it) above, with Q417H counted along it

## CCc1ccc(NC(=O)CSc2nnc(-c3cccnc3)n2CC)cc1 [VUAA1, acetamide,N-(4-ethylphenyl)-2-[[4-ethyl-5-(3-pyridinyl)-4H-1,2,4-triazol-3-yl]thio]-]
CpomOrco^Q417H; [3]
  EC50: ~263 µM
  Hill coefficient: ~ 2.2 ± 0.5
CpomOrco^Q417H; [4]
  EC50: ~261 µM and ~262 µM
CpomOrco^Q417H; after 30 min incubation at low pHe = 4.7, n = 63, constraints applied to fit
  maximum response (Hill fit of calcium response amplitudes): ~ 1.8 ± 0.2 ∆F and 1.8 ∆F
CpomOrco^Q417H; control pH conditions (pH 7.4)
  Hill coefficient: ~ 2.1 ± 1.9
CpomOrco^Q417H; control pH conditions (pH 7.4), N = 94 cells
  maximum response (Hill fit of calcium response amplitudes): ~ 3.9 ∆F and ~ 3.9 ± 1.3 ∆F and 3.9 ∆F
CpomOrco [1]; [5]
  EC50: ~561 µM
  Imax (whole-cell current amplitude, Hill fit): ~ 196 pA and ~ 196 + -32 pA
CpomOrco [1]; [6]
  EC50: ~403 µM
  Imax (whole-cell current amplitude, Hill fit): ~ 784 pA and ~ 784 ± 40 pA
CpomOrco [1]; intracellular pH = 5.5
  h (Hill equation): ~ 5 ± 3.9
CpomOrco [1]; intracellular pH = 5.5, GFP positive cells tested
  number of cells sensitive to VUAA1: 3 out of 4
CpomOrco [1]; intracellular pH = 8.0
  h (Hill equation): ~ 4 ± 0.6
CpomOrco [1]; intracellular pH = 8.0, GFP positive cells tested
  number of cells sensitive to VUAA1: 8 out of 13
CpomOrco [2]; 800 µM VUAA1, Experiment 1, CpomOrco
  Fluo4 + cells, %: 30,99%
CpomOrco [2]; 800 µM VUAA1, Experiment 2, CpomOrco
  Fluo4 + cells, %: 35,06%
CpomOrco [2]; 800 µM VUAA1, HEK293A transfected with CpomOrco and EBFP, range of two experiments
  percentage of cells sensitive to VUAA1 (relative to total number of visible cells): 30.99–35.06%
CpomOrco [2]; [3]
  EC50: ~260 µM
  Hill coefficient: ~ 2.5 ± 4.3
CpomOrco [2]; after 30 min incubation at low pHe = 4.7, n = 84, constraints applied to fit
  maximum response (Hill fit of calcium response amplitudes): ~ 1.3 ± 0.7 ∆F and 1.3 ∆F
CpomOrco [2]; control pH conditions (pH 7.4)
  Hill coefficient: ~ 2.4 ± 0.1
CpomOrco [2]; [4]
  EC50: ~157 µM
CpomOrco [2]; control pH conditions (pH 7.4), N = 123 cells
  maximum response (Hill fit of calcium response amplitudes): ~ 6.3 ∆F and ~ 6.3 ± 0.1 ∆F and 6.3 ∆F
CpomOrco^Q417H+OR6a; 800 µM VUAA1, Experiment 3, CpomOrcoQ417H+OR6a
  Fluo4 + cells, %: 8,41%
CpomOrco^Q417H+OR6a; 800 µM VUAA1, Experiment 4, CpomOrcoQ417H+OR6a
  Fluo4 + cells, %: 10,33%
CpomOrco^Q417H+OR6a; 800 µM VUAA1, HEK293A co-transfected with CpomOrco^Q417H, CpomOR6a and EBFP, range of two experiments
  percentage of VUAA1 sensitive cells: 8.41–10.33%
